This note sets out measurements from ChEMBL document CHEMBL1122775, “NMR spectroscopic studies of intermediary metabolites of cyclophosphamide. A comprehensive kinetic analysis of the interconversion of cis- and trans-4-hydroxycyclophosphamide with aldophosphamide and the concomitant partitioning of aldophosphamide between irreversible fragmentation and reversible …” (J Med Chem, 1984).

As usually defined, the pKa is the negative logarithm of the acid dissociation constant. Low values mean a stronger acid or weaker base, high ones a weaker acid or stronger base.

A short description of this series: pKa was determined. In kind it is physicochemical.

In turn, `CC(C)(C)N` [TERT-BUTYLAMINE] showed a pKa of 10.8. As to `COc1ccc(N)cc1`, the pKa is 5.3.
